Experimental data published in ChEMBL document CHEMBL1150040 (Bioorg Med Chem Lett, 1995).

What was measured:
[1] = molecular target: Protein kinase C delta type (Homo sapiens, UniProt Q05655); test: Inhibition of human Protein kinase C delta
[2] = molecular target: Protein kinase C gamma type (Homo sapiens, UniProt P05129); test: Inhibition of human Protein kinase C gamma
[3] = molecular target: T1, Protein kinase C zeta type (Homo sapiens, UniProt Q05513); test: Inhibition of Protein kinase C zeta
T1 sequence (Q05513 whole entry): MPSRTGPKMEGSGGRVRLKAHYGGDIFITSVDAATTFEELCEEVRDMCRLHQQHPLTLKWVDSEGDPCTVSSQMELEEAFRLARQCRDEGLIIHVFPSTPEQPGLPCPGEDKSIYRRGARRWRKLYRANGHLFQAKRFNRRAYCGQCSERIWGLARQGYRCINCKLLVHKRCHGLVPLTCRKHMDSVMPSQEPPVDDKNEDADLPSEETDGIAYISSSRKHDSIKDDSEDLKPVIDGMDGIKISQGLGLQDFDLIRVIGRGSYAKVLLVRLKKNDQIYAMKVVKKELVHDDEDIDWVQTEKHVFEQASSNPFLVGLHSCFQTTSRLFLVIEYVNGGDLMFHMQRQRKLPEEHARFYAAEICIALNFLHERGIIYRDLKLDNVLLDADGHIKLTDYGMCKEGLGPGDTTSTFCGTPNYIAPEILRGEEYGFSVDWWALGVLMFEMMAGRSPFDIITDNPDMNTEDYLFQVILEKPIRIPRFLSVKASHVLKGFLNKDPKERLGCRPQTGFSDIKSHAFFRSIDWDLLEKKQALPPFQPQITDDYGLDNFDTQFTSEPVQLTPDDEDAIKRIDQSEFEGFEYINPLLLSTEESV

[4] = molecular target: T2, Protein kinase C epsilon type (Homo sapiens, UniProt Q02156); test: Inhibition of human Protein kinase C epsilon
T2 sequence (Q02156 whole entry): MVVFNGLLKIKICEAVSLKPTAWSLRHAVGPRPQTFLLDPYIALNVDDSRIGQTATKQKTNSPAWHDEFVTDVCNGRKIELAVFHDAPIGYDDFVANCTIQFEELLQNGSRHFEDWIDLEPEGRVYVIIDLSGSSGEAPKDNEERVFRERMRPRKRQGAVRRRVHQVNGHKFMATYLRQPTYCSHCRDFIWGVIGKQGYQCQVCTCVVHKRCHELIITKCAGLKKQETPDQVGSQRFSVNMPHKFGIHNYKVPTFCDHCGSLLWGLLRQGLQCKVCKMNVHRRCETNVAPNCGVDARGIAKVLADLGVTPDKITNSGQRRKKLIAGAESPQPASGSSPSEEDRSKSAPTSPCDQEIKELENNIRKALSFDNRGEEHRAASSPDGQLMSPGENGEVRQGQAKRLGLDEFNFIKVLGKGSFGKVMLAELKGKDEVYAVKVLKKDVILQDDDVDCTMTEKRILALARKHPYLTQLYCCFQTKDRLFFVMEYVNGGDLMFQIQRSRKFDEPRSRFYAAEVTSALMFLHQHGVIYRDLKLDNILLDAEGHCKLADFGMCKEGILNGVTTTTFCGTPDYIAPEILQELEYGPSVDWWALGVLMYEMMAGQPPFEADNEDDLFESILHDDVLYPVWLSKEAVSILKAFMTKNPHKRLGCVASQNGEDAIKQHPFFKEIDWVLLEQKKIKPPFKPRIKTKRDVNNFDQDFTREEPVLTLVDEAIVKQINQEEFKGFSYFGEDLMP

[5] = molecular target: Protein kinase C eta type (Homo sapiens, UniProt P24723); test: Inhibition of human protein kinase C eta
Protein kinase C eta type, sequence (P24723 whole entry): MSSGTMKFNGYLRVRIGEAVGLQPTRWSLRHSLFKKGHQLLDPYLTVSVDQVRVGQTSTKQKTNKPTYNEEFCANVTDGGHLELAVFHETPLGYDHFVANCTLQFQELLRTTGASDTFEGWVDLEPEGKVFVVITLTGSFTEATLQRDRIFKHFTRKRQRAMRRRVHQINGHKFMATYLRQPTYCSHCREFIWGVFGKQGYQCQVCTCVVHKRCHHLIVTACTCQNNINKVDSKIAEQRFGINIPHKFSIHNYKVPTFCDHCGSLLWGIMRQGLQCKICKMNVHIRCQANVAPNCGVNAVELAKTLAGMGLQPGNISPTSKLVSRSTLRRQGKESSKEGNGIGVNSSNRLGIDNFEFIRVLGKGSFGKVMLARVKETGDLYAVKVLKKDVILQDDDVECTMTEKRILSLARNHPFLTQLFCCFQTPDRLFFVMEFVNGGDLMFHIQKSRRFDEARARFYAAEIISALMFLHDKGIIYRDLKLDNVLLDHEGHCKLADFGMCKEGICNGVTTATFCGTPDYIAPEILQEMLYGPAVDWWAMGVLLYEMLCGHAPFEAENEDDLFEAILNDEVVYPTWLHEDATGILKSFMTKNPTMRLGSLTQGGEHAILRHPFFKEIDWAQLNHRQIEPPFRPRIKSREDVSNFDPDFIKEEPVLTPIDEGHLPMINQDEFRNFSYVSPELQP

[6] = molecular target: T3, Protein kinase C beta type (Homo sapiens, UniProt P05771); test: Inhibition of human Protein kinase C beta 2
T3 sequence (P05771 whole entry): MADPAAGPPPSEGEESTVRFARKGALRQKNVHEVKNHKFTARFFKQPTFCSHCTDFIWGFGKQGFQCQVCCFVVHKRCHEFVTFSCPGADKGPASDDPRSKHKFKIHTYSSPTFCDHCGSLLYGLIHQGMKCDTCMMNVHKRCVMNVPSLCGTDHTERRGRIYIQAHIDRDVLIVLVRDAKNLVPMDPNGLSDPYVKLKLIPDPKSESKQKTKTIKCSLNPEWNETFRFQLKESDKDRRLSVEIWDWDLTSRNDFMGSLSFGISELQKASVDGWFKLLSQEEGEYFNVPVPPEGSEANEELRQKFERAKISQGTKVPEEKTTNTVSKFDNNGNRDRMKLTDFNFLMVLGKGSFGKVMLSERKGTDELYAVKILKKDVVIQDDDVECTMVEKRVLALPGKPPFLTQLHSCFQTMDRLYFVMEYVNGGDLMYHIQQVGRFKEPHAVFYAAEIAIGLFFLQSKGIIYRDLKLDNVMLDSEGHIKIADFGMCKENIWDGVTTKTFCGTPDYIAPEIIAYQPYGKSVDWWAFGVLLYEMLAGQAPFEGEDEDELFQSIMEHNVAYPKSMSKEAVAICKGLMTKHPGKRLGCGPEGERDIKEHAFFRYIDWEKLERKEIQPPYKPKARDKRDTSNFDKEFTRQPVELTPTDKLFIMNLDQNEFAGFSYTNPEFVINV

[7] = molecular target: T3, Protein kinase C beta type; test: Inhibition of human Protein kinase C beta 1
[8] = molecular target: Protein kinase C alpha type (Homo sapiens, UniProt P17252); test: Inhibition of human Protein kinase C alpha

Protein kinase C delta type, sequence (Q05655 whole entry): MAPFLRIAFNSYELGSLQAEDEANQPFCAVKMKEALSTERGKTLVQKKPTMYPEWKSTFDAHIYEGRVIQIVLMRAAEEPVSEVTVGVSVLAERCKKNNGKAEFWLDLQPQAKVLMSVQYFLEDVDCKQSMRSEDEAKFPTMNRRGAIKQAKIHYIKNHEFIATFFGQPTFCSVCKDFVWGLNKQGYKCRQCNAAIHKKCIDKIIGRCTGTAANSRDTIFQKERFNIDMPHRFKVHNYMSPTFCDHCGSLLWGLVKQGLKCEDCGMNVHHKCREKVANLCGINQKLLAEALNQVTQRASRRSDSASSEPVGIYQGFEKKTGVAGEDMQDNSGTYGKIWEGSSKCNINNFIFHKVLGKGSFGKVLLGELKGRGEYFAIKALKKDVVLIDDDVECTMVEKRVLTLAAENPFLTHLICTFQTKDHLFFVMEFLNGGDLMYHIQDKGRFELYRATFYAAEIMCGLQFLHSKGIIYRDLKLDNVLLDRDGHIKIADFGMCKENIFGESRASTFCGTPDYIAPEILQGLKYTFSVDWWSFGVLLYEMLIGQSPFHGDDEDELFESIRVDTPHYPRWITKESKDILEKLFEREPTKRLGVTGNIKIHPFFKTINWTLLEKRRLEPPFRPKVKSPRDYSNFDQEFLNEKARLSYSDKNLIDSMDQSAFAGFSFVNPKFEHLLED

Question: Which results are given for `O=C(N[C@@H]1CCCCC[C@H]1OC(=O)c1cc(O)c(C(=O)c2c(O)cccc2C(=O)O)c(O)c1)c1ccc(O)cc1`?
Answer: IC50 [1]: 90 nM; IC50 [2]: 60 nM; IC50 [3]: > 150000 nM; IC50 [4]: 280 nM; IC50 [5]: 60 nM; IC50 [6]: 430 nM; IC50 [7]: 220 nM; IC50 [8]: 270 nM

Question: Which results are given for `O=C(N[C@@H]1CCC[C@H]1OC(=O)c1cc(O)c(C(=O)c2c(O)cccc2C(=O)O)c(O)c1)c1ccc(O)cc1`?
Answer: IC50 [1]: 0.9 nM; IC50 [2]: 10 nM; IC50 [4]: 50 nM; IC50 [5]: 0.6 nM; IC50 [6]: 50 nM; IC50 [7]: 40 nM; IC50 [8]: 40 nM

Question: Which IC50 [1] does the source give for `O=C(N[C@@H]1CNC[C@H]1OC(=O)c1cc(O)c(C(=O)c2c(O)cccc2C(=O)O)c(O)c1)c1ccc(O)cc1` here?
Answer: The IC50 was 5 nM.

Question: What about the IC50 [2] of the same molecule?
Answer: The IC50 was 13 nM.

Question: What about the IC50 [3] of the same molecule?
Answer: The IC50 was > 150 nM.

Question: And the IC50 [4]?
Answer: The IC50 was 10 nM.

Question: What about the IC50 [5] of the same molecule?
Answer: Its IC50 is 4 nM.

Question: What about the IC50 [6] of the same molecule?
Answer: The IC50 was 33 nM.

Question: What about the IC50 [7] of the same molecule?
Answer: The IC50 was 17 nM.

Question: What about the IC50 [8] of the same molecule?
Answer: The IC50 was 22 nM.

Question: `O=C(N[C@@H]1CNCC[C@H]1OC(=O)c1cc(O)c(C(=O)c2c(O)cccc2C(=O)O)c(O)c1)c1ccc(O)cc1` was tested. Which IC50 [1] did it give?
Answer: The IC50 was 50 nM.

Question: And the IC50 [2]?
Answer: Its IC50 is 2200 nM.

Question: And the IC50 [3]?
Answer: The IC50 was > 150000 nM.

Question: What about the IC50 [4] of the same molecule?
Answer: The IC50 was 1800 nM.

Question: What about the IC50 [5] of the same molecule?
Answer: Its IC50 is 80 nM.

Question: And the IC50 [6]?
Answer: Its IC50 is 4700 nM.

Question: And the IC50 [7]?
Answer: The IC50 was 2200 nM.

Question: What about the IC50 [8] of the same molecule?
Answer: Its IC50 is 5100 nM.

Question: With `O=C(N[C@@H]1CNCCC[C@H]1OC(=O)c1cc(O)c(C(=O)c2c(O)cccc2C(=O)O)c(O)c1)c1ccc(O)cc1` (racemic) [BALANOL] as the molecule, how does the IC50 [1] read?
Answer: The IC50 was 32 nM.

Question: And the IC50 [2]?
Answer: The IC50 was 34 nM.

Question: And the IC50 [3]?
Answer: Its IC50 is 3500 nM.

Question: What about the IC50 [5] of the same molecule?
Answer: Its IC50 is 22 nM.

Question: And the IC50 [6]?
Answer: Its IC50 is 44 nM.

Question: What about the IC50 [7] of the same molecule?
Answer: The IC50 was 32 nM.

Question: What about the IC50 [8] of the same molecule?
Answer: Its IC50 is 74 nM.
